Reference: patent US9302988B2, “Fluoromethyl-substituted pyrrole carboxamides” (GRÜNENTHAL GMBH, priority 2012, dated 2016)

Target: T1, Human CaV2.2 channels (Homo sapiens, UniProt Q00975)
T1 construct: expressed in transfected cells
Assay: Fluorescent assay for CaV2.2 channels using potassium depolarization to induce channel opening (FLIPR, Fluo-4)
Format: cell-based
Conditions: 3 μM test compound, 30 mM KCl, HEK293 cells stably expressing human CaV2.2; read-out: %-Inhib (CaV2.2) @3 μM @30 mM KCl
How it was run: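 Channel block was read as the baseline-normalized peak Ca²⁺ signal (Fluo-4, 480/535 nm) after a high-KCl depolarizing addition (210 mM KCl buffer). Beforehand, compound sat 15 min at 25 °C on HEK293 cells carrying human CaV2.2, α2δ/β subunits and Kir2.3, in pH 7.4 buffer with 30 mM KCl.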

T1 sequence (Q00975 whole entry): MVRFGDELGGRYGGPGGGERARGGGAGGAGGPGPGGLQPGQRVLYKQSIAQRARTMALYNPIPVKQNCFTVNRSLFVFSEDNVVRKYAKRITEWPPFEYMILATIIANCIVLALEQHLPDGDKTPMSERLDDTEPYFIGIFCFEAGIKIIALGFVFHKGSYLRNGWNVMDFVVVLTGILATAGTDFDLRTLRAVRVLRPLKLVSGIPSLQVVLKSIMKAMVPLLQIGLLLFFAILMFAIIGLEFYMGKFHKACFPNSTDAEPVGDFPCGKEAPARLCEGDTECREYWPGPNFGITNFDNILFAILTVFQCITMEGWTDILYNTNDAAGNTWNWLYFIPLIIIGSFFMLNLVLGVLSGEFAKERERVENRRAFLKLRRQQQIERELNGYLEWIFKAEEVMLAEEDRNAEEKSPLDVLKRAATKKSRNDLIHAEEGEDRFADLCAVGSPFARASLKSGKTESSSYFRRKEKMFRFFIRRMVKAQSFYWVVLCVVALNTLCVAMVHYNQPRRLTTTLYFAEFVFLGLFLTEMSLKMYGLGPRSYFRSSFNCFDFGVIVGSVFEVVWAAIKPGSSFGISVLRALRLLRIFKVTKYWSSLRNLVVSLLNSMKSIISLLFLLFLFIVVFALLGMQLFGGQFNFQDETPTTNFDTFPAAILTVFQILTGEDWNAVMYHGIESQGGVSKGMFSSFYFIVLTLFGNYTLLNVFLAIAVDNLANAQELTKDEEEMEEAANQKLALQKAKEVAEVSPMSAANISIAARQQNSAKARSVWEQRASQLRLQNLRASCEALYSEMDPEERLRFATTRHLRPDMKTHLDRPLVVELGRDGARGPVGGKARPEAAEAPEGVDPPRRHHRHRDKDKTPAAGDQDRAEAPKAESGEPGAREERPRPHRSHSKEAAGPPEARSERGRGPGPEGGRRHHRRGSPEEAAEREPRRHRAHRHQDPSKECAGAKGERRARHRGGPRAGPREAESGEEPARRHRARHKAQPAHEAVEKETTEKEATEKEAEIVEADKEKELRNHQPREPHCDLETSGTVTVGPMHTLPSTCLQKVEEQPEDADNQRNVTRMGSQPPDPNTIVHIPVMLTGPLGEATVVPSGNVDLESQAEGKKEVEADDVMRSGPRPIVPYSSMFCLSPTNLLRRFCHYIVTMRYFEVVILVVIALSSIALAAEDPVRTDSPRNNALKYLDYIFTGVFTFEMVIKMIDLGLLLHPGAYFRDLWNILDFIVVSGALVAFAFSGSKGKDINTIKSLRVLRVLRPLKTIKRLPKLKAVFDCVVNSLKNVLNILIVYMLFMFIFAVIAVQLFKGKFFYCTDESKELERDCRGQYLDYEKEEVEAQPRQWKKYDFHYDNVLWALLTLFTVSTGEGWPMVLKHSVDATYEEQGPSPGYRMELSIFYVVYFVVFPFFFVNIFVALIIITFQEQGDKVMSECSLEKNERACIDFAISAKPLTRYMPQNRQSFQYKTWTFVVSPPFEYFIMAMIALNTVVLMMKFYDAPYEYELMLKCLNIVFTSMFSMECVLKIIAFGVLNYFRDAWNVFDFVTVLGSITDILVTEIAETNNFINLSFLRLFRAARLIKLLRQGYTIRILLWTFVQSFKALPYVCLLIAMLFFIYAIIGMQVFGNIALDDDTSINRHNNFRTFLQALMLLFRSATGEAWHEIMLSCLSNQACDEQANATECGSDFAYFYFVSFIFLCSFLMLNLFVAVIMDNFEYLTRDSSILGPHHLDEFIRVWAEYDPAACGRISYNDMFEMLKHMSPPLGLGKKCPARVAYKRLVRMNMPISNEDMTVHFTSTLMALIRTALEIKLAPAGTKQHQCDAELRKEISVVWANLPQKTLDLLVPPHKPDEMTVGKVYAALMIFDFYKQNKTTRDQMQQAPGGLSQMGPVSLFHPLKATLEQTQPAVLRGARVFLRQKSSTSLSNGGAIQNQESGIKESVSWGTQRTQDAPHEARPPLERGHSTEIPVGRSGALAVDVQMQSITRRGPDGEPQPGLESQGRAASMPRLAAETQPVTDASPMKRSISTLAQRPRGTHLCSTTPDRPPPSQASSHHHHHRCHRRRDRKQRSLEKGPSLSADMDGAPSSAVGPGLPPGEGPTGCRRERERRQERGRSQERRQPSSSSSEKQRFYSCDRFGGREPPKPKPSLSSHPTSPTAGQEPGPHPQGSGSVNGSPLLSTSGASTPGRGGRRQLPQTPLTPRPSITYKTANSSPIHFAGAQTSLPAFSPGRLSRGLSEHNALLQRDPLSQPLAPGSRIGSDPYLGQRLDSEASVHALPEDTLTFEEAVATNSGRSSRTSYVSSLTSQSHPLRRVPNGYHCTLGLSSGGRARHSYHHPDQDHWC
T1 sequence (P54289 25-1103, further chain): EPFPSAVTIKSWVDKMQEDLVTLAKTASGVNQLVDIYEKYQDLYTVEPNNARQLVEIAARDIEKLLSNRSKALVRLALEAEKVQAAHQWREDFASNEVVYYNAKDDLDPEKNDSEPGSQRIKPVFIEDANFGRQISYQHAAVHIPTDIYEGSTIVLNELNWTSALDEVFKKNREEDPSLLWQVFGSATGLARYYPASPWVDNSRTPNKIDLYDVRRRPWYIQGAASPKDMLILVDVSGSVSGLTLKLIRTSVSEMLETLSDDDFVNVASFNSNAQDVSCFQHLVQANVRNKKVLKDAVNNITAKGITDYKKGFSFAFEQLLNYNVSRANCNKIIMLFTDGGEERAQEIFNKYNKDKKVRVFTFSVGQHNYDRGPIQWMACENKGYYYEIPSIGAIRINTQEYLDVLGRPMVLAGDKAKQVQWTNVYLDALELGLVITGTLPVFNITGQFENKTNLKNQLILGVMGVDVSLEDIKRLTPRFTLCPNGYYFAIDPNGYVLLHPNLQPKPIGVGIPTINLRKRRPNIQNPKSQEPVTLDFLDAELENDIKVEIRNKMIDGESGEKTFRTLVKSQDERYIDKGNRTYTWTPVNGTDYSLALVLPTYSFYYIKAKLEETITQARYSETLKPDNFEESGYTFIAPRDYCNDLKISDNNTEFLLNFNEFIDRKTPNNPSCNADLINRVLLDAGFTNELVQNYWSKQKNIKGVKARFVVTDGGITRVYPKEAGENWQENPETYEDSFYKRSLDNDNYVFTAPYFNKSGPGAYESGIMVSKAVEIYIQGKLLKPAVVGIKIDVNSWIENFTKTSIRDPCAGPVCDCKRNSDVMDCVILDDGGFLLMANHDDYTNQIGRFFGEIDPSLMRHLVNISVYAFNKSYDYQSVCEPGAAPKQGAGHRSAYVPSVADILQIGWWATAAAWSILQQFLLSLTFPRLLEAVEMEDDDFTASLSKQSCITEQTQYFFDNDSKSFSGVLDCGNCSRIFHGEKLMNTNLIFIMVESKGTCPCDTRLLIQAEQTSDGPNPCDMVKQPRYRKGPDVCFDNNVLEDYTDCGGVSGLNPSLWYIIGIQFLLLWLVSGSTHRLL
T1 sequence (P54284 whole entry, further chain): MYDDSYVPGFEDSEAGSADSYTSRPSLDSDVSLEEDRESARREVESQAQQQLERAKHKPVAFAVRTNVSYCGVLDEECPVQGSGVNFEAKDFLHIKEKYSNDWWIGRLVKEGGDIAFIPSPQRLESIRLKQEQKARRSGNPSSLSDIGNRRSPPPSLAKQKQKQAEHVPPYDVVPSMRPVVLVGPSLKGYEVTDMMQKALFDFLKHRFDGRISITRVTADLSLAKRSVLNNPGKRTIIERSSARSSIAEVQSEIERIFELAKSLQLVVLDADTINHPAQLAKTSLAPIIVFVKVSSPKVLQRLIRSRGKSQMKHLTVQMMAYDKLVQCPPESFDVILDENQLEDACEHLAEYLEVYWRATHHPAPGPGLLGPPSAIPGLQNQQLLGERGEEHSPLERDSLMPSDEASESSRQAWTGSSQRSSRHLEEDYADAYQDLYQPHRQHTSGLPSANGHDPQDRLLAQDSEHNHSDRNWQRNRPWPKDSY

Which inhibition at 3 µM does the source give for `CN(CC1CCC[C@H]1O)C(=O)c1c(-c2ccc(Cl)cc2)cc(C(F)(F)F)n1Cc1ccccc1` (stereo partly drawn) [SC-200, 1-Benzyl-3-(4-chlorophenyl)-N-[[(2R)-2-hydroxy-cyclopentyl]-methyl]-N-methyl-5-(trifluoromethyl)-1H-pyrrole-2-carboxylic acid amide] here?
The inhibition at 3 µM was over 95%.

How did the inhibition at 3 µM turn out when `CS(=O)(=O)C1CN(C(=O)c2c(-c3ccc(Cl)cc3)cc(C(F)(F)F)n2Cc2ccccc2)C1` [SC-201, [1-Benzyl-3-(4-chlorophenyl)-5-(trifluoromethyl)-1H-pyrrol-2-yl]-(3-methylsulfonyl-azetidin-1-yl)-methanone] was run?
The inhibition at 3 µM was 75 to 95%.

Which inhibition at 3 µM does the source give for `CN(CC1CCCCO1)C(=O)c1c(-c2ccc(Cl)cc2)cc(C(F)(F)F)n1Cc1ccccc1` (stereo not drawn) [SC-202, 1-Benzyl-3-(4-chlorophenyl)-N-methyl-N-(tetrahydro-pyran-2-yl-methyl)-5-(trifluoromethyl)-1H-pyrrole-2-carboxylic acid amide] here?
Its inhibition at 3 µM is 75 to 95%.

Which inhibition at 3 µM does the source give for `CN(CCN1CCCC1)CC(C)(C)CN(C)C(=O)c1c(-c2ccc(Cl)cc2)cc(C(F)(F)F)n1Cc1ccccc1` [SC-203, 1-Benzyl-3-(4-chlorophenyl)-N-[2,2-dimethyl-3-[methyl-(2-pyrrolidin-1-yl-ethyl)-amino]-propyl]-N-methyl-5-(trifluoromethyl)-1H-pyrrole-2-carboxylic acid amide] here?
Its inhibition at 3 µM is over 95%.

For `Cc1cc(CN(C)C(=O)c2c(-c3ccc(Cl)cc3)cc(C(F)(F)F)n2Cc2ccccc2)on1` [SC-204, 1-Benzyl-3-(4-chlorophenyl)-N-methyl-N-[(3-methyl-isoxazol-5-yl)-methyl]-5-(trifluoromethyl)-1H-pyrrole-2-carboxylic acid amide], which inhibition at 3 µM is on record?
Its inhibition at 3 µM is 75 to 95%.

How did the inhibition at 3 µM turn out when `Cc1cc(CN(C)C(=O)c2c(-c3ccc(Cl)cc3)cc(C(F)(F)F)n2Cc2ccccc2)no1` [SC-205, 1-Benzyl-3-(4-chlorophenyl)-N-methyl-N-[(5-methyl-isoxazol-3-yl)-methyl]-5-(trifluoromethyl)-1H-pyrrole-2-carboxylic acid amide] was run?
Its inhibition at 3 µM is over 95%.

Which inhibition at 3 µM does the source give for `Cc1nnc(CN(C)C(=O)c2c(-c3ccc(Cl)cc3)cc(C(F)(F)F)n2Cc2ccccc2)o1` [SC-206, 1-Benzyl-3-(4-chlorophenyl)-N-methyl-N-[(5-methyl-[1,3,4]oxadiazol-2-yl)-methyl]-5-(trifluoromethyl)-1H-pyrrole-2-carboxylic acid amide] here?
Its inhibition at 3 µM is 75 to 95%.

How did the inhibition at 3 µM turn out when `CN(Cc1ccncn1)C(=O)c1c(-c2ccc(Cl)cc2)cc(C(F)(F)F)n1Cc1ccccc1` [SC-207, 1-Benzyl-3-(4-chlorophenyl)-N-methyl-N-(pyrimidin-4-yl-methyl)-5-(trifluoromethyl)-1H-pyrrole-2-carboxylic acid amide] was run?
The inhibition at 3 µM was over 95%.

With `COC1CCN(C(=O)c2c(-c3ccc(Cl)cc3)cc(C(F)(F)F)n2Cc2ccccc2)CC1` [SC-208, [1-Benzyl-3-(4-chlorophenyl)-5-(trifluoromethyl)-1H-pyrrol-2-yl]-(4-methoxy-piperidin-1-yl)-methanone] as the compound, how does the inhibition at 3 µM read?
Its inhibition at 3 µM is over 95%.

`CC(=O)N1CCN(C(=O)c2c(-c3ccc(Cl)cc3)cc(C(F)(F)F)n2Cc2ccccc2)CC1` [SC-209, 1-[4-[1-Benzyl-3-(4-chlorophenyl)-5-(trifluoromethyl)-1H-pyrrole-2-carbonyl]-piperazin-1-yl]-ethanone] was tested. Which inhibition at 3 µM did it give?
The inhibition at 3 µM was over 95%.

How did the inhibition at 3 µM turn out when `CN(Cc1cnccn1)C(=O)c1c(-c2ccc(Cl)cc2)cc(C(F)(F)F)n1Cc1ccccc1` [SC-210, 1-Benzyl-3-(4-chlorophenyl)-N-methyl-N-(pyrazin-2-yl-methyl)-5-(trifluoromethyl)-1H-pyrrole-2-carboxylic acid amide] was run?
The inhibition at 3 µM was 75 to 95%.

`CN(Cc1nccn1C)C(=O)c1c(-c2ccc(Cl)cc2)cc(C(F)(F)F)n1Cc1ccccc1` [SC-212, 1-Benzyl-3-(4-chlorophenyl)-N-methyl-N-[(1-methyl-1H-imidazol-2-yl)-methyl]-5-(trifluoromethyl)-1H-pyrrole-2-carboxylic acid amide] was tested. Which inhibition at 3 µM did it give?
Its inhibition at 3 µM is over 95%.

For `CC(C)N(C)C(=O)c1c(-c2ccc(Cl)cc2)cc(C(F)(F)F)n1Cc1ccccc1` [SC-213, 1-Benzyl-3-(4-chlorophenyl)-N-isopropyl-N-methyl-5-(trifluoromethyl)-1H-pyrrole-2-carboxylic acid amide], which inhibition at 3 µM is on record?
The inhibition at 3 µM was over 95%.

Which inhibition at 3 µM does the source give for `CC(C)NC(=O)c1c(-c2ccc(Cl)cc2)cc(C(F)(F)F)n1Cc1ccccc1` [SC-214, 1-Benzyl-3-(4-chlorophenyl)-N-isopropyl-5-(trifluoromethyl)-1H-pyrrole-2-carboxylic acid amide] here?
Its inhibition at 3 µM is 75 to 95%.

Which inhibition at 3 µM does the source give for `Cc1cnc(CN(C)C(=O)c2c(-c3ccc(Cl)cc3)cc(C(F)(F)F)n2Cc2ccccc2)cn1` [SC-215, 1-Benzyl-3-(4-chlorophenyl)-N-methyl-N-[(5-methyl-pyrazin-2-yl)-methyl]-5-(trifluoromethyl)-1H-pyrrole-2-carboxylic acid amide] here?
The inhibition at 3 µM was over 95%.

How did the inhibition at 3 µM turn out when `CN(Cc1cnc(N(C)C)nc1)C(=O)c1c(-c2ccc(Cl)cc2)cc(C(F)(F)F)n1Cc1ccccc1` [SC-216, 1-Benzyl-3-(4-chlorophenyl)-N-[(2-dimethylamino-pyrimidin-5-yl)-methyl]-N-methyl-5-(trifluoromethyl)-1H-pyrrole-2-carboxylic acid amide] was run?
The inhibition at 3 µM was 75 to 95%.

Which inhibition at 3 µM does the source give for `O=C(c1c(-c2ccc(Cl)cc2)cc(C(F)(F)F)n1Cc1ccccc1)N1CCn2ccnc2C1` [SC-217, [1-Benzyl-3-(4-chlorophenyl)-5-(trifluoromethyl)-1H-pyrrol-2-yl]-(5,6,7,8-tetrahydro-imidazo[1,2-a]pyrazin-7-yl)-methanone] here?
Its inhibition at 3 µM is over 95%.

With `Cc1c(-c2ccc(F)cc2)c(C(=O)N(C)CC(C)(C)CO)n(Cc2ccccc2)c1C(F)(F)F` [SC-218, 1-Benzyl-3-(4-fluorophenyl)-N-(3-hydroxy-2,2-dimethyl-propyl)-N,4-dimethyl-5-(trifluoromethyl)-1H-pyrrole-2-carboxylic acid amide] as the compound, how does the inhibition at 3 µM read?
Its inhibition at 3 µM is over 95%.

With `Cc1c(-c2ccc(F)cc2)c(C(=O)N(C)CCS(C)(=O)=O)n(Cc2ccccc2)c1C(F)(F)F` [SC-219, 1-Benzyl-3-(4-fluorophenyl)-N,4-dimethyl-N-(2-methylsulfonyl-ethyl)-5-(trifluoromethyl)-1H-pyrrole-2-carboxylic acid amide] as the compound, how does the inhibition at 3 µM read?
The inhibition at 3 µM was over 95%.

Which inhibition at 3 µM does the source give for `Cc1c(-c2ccc(F)cc2)c(C(=O)N(C)C2CCOCC2)n(Cc2ccccc2)c1C(F)(F)F` [SC-220, 1-Benzyl-3-(4-fluorophenyl)-N,4-dimethyl-N-tetrahydro-pyran-4-yl-5-(trifluoromethyl)-1H-pyrrole-2-carboxylic acid amide] here?
Its inhibition at 3 µM is over 95%.

`Cc1c(-c2ccc(F)cc2)c(C(=O)N(C)C2CC2)n(Cc2ccccc2)c1C(F)(F)F` [SC-221, 1-Benzyl-N-cyclopropyl-3-(4-fluorophenyl)-N,4-dimethyl-5-(trifluoromethyl)-1H-pyrrole-2-carboxylic acid amide] was tested. Which inhibition at 3 µM did it give?
Its inhibition at 3 µM is over 95%.

How did the inhibition at 3 µM turn out when `Cc1c(-c2ccc(F)cc2)c(C(=O)N(C)C(C)(C)CO)n(Cc2ccccc2)c1C(F)(F)F` [SC-222, 1-Benzyl-3-(4-fluorophenyl)-N-(2-hydroxy-1,1-dimethyl-ethyl)-N,4-dimethyl-5-(trifluoromethyl)-1H-pyrrole-2-carboxylic acid amide] was run?
Its inhibition at 3 µM is over 95%.

With `Cc1c(-c2ccc(F)cc2)c(C(=O)N2CC(O)C2)n(Cc2ccccc2)c1C(F)(F)F` [SC-223, [1-Benzyl-3-(4-fluorophenyl)-4-methyl-5-(trifluoromethyl)-1H-pyrrol-2-yl]-(3-hydroxy-azetidin-1-yl)-methanone] as the compound, how does the inhibition at 3 µM read?
The inhibition at 3 µM was 75 to 95%.

How did the inhibition at 3 µM turn out when `Cc1c(-c2ccc(F)cc2)c(C(=O)N(C)CC(C)(C)C)n(Cc2ccccc2)c1C(F)(F)F` [SC-224, 1-Benzyl-N-(2,2-dimethyl-propyl)-3-(4-fluorophenyl)-N,4-dimethyl-5-(trifluoromethyl)-1H-pyrrole-2-carboxylic acid amide] was run?
Its inhibition at 3 µM is 75 to 95%.

How did the inhibition at 3 µM turn out when `Cc1c(-c2ccc(F)cc2)c(C(=O)N2CCOC(C)(C)C2)n(Cc2ccccc2)c1C(F)(F)F` [SC-225, [1-Benzyl-3-(4-fluorophenyl)-4-methyl-5-(trifluoromethyl)-1H-pyrrol-2-yl]-(2,2-dimethyl-morpholin-4-yl)-methanone] was run?
Its inhibition at 3 µM is over 95%.

For `Cc1c(-c2ccc(F)cc2)c(C(=O)N(C)CC2CCOC2)n(Cc2ccccc2)c1C(F)(F)F` (stereo not drawn) [SC-226, 1-Benzyl-3-(4-fluorophenyl)-N,4-dimethyl-N-(tetrahydro-furan-3-yl-methyl)-5-(trifluoromethyl)-1H-pyrrole-2-carboxylic acid amide], which inhibition at 3 µM is on record?
The inhibition at 3 µM was over 95%.

`Cc1c(-c2ccc(C(F)(F)F)cc2)c(C(=O)N(C)CC(C)(C)CO)n(Cc2ccccc2)c1C(F)(F)F` [SC-227, 1-Benzyl-N-(3-hydroxy-2,2-dimethyl-propyl)-N,4-dimethyl-5-(trifluoromethyl)-3-[4-(trifluoromethyl)-phenyl]-1H-pyrrole-2-carboxylic acid amide] was tested. Which inhibition at 3 µM did it give?
Its inhibition at 3 µM is 75 to 95%.

Which inhibition at 3 µM does the source give for `Cc1c(-c2ccc(C(F)(F)F)cc2)c(C(=O)N(C)CCS(C)(=O)=O)n(Cc2ccccc2)c1C(F)(F)F` [SC-228, 1-Benzyl-N,4-dimethyl-N-(2-methylsulfonyl-ethyl)-5-(trifluoromethyl)-3-[4-(trifluoromethyl)-phenyl]-1H-pyrrole-2-carboxylic acid amide] here?
Its inhibition at 3 µM is 75 to 95%.

How did the inhibition at 3 µM turn out when `Cc1c(-c2ccc(C(F)(F)F)cc2)c(C(=O)N(C)C2CCOCC2)n(Cc2ccccc2)c1C(F)(F)F` [SC-229, 1-Benzyl-N,4-dimethyl-N-tetrahydro-pyran-4-yl-5-(trifluoromethyl)-3-[4-(trifluoromethyl)-phenyl]-1H-pyrrole-2-carboxylic acid amide] was run?
The inhibition at 3 µM was 75 to 95%.

For `Cc1c(-c2ccc(C(F)(F)F)cc2)c(C(=O)N(C)C2CC2)n(Cc2ccccc2)c1C(F)(F)F` [SC-230, 1-Benzyl-N-cyclopropyl-N,4-dimethyl-5-(trifluoromethyl)-3-[4-(trifluoromethyl)-phenyl]-1H-pyrrole-2-carboxylic acid amide], which inhibition at 3 µM is on record?
Its inhibition at 3 µM is 40 to 75%.
